Converted amounts (≈) assume the structure as drawn. Read-outs that look alike come from different tables or passages of the source.
Experiments:
physchem = settings: for solubility: organic solvent or mixture
From the text: In one or more embodiments, the foamable composition includes a potent solvent, in addition to or in place of one of the hydrophobic solvents, polar solvents or emollients of the composition. A potent solvent is a solvent other than mineral oil that solubilizes a specific active agent substantially better than a hydrocarbon solvent such as mineral oil or petrolatum.
In one or more embodiments, the composition includes at least one active agent in a therapeutically effective concentration; and at least one potent solvent in a sufficient amount to substantially solubilize the at least one active agent in the composition. […] In one or more embodiments, the concentration of the at least one potent solvent is more than about 40% of the at least one solvent of the composition; or even more than about 60%.

[1] = cited from earlier work

Compound	Solubility in glycofurol (physchem)	Solubility in mineral oil (physchem) [%]	Solubility in dimethyl isosorbide (physchem)	also measured
CCCCC(=O)O[C@]1(C(=O)CO)[C@@H](C)C[C@H]2[C@@H]3CCC4=CC(=O)C=C[C@]4(C)[C@@]3(F)[C@@H](O)C[C@@]21C [Betamethasone valerate]	more than 1%	< 0.01		solubility in water ([1]; in words): practically insoluble
CCCC(=O)O[C@]1(C(=O)CO)CC[C@H]2[C@@H]3CCC4=CC(=O)CC[C@]4(C)[C@H]3[C@@H](O)C[C@@]21C [Hydrocortisone butyrate]	more than 1%	< 0.01		
CC(=O)N1CCN(c2ccc(OCC3COC(Cn4ccnc4)(c4ccc(Cl)cc4Cl)O3)cc2)CC1 (stereo not drawn) [Ketoconazole]	more than 1%	< 0.01	more than 1%	Solubility in propylene glycol (physchem): more than 1%
Cc1cnc(NC(=O)C2=C(O)c3ccccc3S(=O)(=O)N2C)s1 [Meloxicam]		< 0.001		solubility (physchem; Solubility in PEG 400): 3700 µg/mL (≈ 10.5 mM); solubility (physchem; Solubility in propylene glycol): 300 µg/mL (≈ 0.854 mM)
Cc1ncc([N+](=O)[O-])n1CCO [Metronidazole]		< 0.01	more than 1%	
C/C(=C\C(=O)OCCCCCCCCC(=O)O)C[C@@H]1OC[C@H](C[C@@H]2O[C@H]2[C@@H](C)[C@H](C)O)[C@@H](O)[C@H]1O [Mupirocin]	more than 1%	< 0.01	more than 1%	Solubility in polyethylene glycol 400 (PEG 400) (physchem): more than 1%; Solubility in propylene glycol (physchem): more than 1%
CC(=O)[C@H]1CC[C@H]2[C@@H]3CCC4=CC(=O)CC[C@]4(C)[C@H]3CC[C@]12C [Progesterone]		< 0.001		solubility (physchem; Solubility in PEG 400): 15300 µg/mL (≈ 48.7 mM)
C=C1/C(=C\C=C2/CCC[C@]3(C)[C@@H]([C@H](C)/C=C/[C@@H](O)C4CC4)CC[C@@H]23)C[C@@H](O)C[C@@H]1O [calcipotriol]				solubility in water [1]: 0.6 µg/mL (≈ 0.00145 mM)
CCC(=O)O[C@]1(C(=O)CCl)[C@@H](C)C[C@H]2[C@@H]3CCC4=CC(=O)C=C[C@]4(C)[C@@]3(F)[C@@H](O)C[C@@]21C [clobestol proprionate]				degree of solubility in water or petrolatum or the composition ([1]; in words): practically insoluble
C=CC[C@@H]1/C=C(\C)C[C@H](C)C[C@H](OC)[C@H]2O[C@@](O)(C(=O)C(=O)N3CCCC[C@H]3C(=O)O[C@H](/C(C)=C/[C@@H]3CC[C@@H](O)[C@H](OC)C3)[C@H](C)[C@@H](O)CC1=O)[C@H](C)C[C@@H]2OC [tacrolimus]				solubility in water ([1]; in words): insoluble

Reference: US8795635B2, “Substantially non-aqueous foamable petrolatum based pharmaceutical and cosmetic compositions and their uses” (Foamix Ltd., priority 2006, dated 2014)
